Reference: US9833497B2, “Human originated EGF domain proteins and use of the same” (CHENGDU SOURCEBIO LIMITED-LIABILITY COMPANY, priority 2013, dated 2017)

Experiments:
Format in all cases: cell-based
[1] = tested on: Proteus vulgaris; experiment: MIC against Gram-negative bacteria: Proteus vulgaris
Outline: (§1)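 MIC, the lowest recombinant protein concentration giving no bacterial growth, found by two-fold serial dilution of human EGF-domain proteins in triplicate. Inoculum 5×10^5 CFU/mL in LB from cultures at McFarland 0.5; plates incubated at 37° C, 175 rpm shaking.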

[2] = tested on: Serratia marcescens; experiment: MIC against Gram-negative bacteria: Serratia marcescens
Outline: as §1

[3] = tested on: Pseudomonas aeruginosa; experiment: MIC against Gram-negative bacteria: Pseudomonas aeruginosa
Outline: as §1

[4] = tested on: E. coli BL21; experiment: MIC against Gram-negative bacteria: E. coli BL21
Outline: as §1

[5] = tested on: Aeromonas hydrophila; experiment: MIC against Gram-negative bacteria: Aeromonas hydrophila
Outline: as §1

[6] = tested on: Klebsiella pneumonia; experiment: MIC against Gram-negative bacteria: Klebsiella pneumonia
Outline: as §1

[7] = tested on: Enterobacter cloacae; experiment: MIC against Gram-negative bacteria: Enterobacter cloacae
Outline: as §1

[8] = tested on: Citrobacter diversus; experiment: MIC against Gram-negative bacteria: Citrobacter diversus
Outline: as §1

[9] = tested on: Moraxella catarrhalis; experiment: MIC against Gram-negative bacteria: Moraxella catarrhalis
Outline: as §1

[10] = tested on: Proteus mirabilis; experiment: MIC against Gram-negative bacteria: Proteus mirabilis
Outline: as §1

[11] = tested on: E. coli DH5α; experiment: Antibacterial activity: MIC and growth curve against E. coli DH5α in 96-well plate; conditions: minimal inhibitory concentration against E. coli DH5α; 96-well plate, 5×10^5 CFU/mL, 37° C., judged after 8 h
Outline: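 MIC taken as lowest protein level with no bacterial growth, tracked by A600 every 30 min during 37 °C, 175 rpm culture. Two-fold protein series 50-12.5 μg/mL final, triplicate wells, against 5×10^5 CFU/mL of LB-washed mid-log cells.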

[12] = Proteus vulgaris, 96-well plate, 5×10^5 CFU/mL, 37° C., 10 h
[13] = Serratia marcescens, 96-well plate, 5×10^5 CFU/mL, 37° C., 10 h
[14] = Pseudomonas aeruginosa, 96-well plate, 5×10^5 CFU/mL, 37° C., 10 h
[15] = E. coli BL21, 96-well plate, 5×10^5 CFU/mL, 37° C., 10 h
[16] = Aeromonas hydrophila, 96-well plate, 5×10^5 CFU/mL, 37° C., 10 h
[17] = Klebsiella pneumonia, 96-well plate, 5×10^5 CFU/mL, 37° C., 10 h
[18] = Enterobacter cloacae, 96-well plate, 5×10^5 CFU/mL, 37° C., 10 h
[19] = Citrobacter diversus, 96-well plate, 5×10^5 CFU/mL, 37° C., 10 h
[20] = Moraxella catarrhalis, 96-well plate, 5×10^5 CFU/mL, 37° C., 10 h
[21] = Proteus mirabilis, 96-well plate, 5×10^5 CFU/mL, 37° C., 10 h
[22] = P. vulgaris, 10 h cultivation at 37° C.
[23] = S. marcescens, 10 h cultivation at 37° C.
[24] = P. aeruginosa, 10 h cultivation at 37° C.
[25] = E. coli BL21, 10 h cultivation at 37° C.
[26] = A. hydrophila, 10 h cultivation at 37° C.
[27] = K. pneumonia, 10 h cultivation at 37° C.
[28] = E. cloacae, 10 h cultivation at 37° C.
[29] = C. diversus, 10 h cultivation at 37° C.
[30] = M. catarrhalis, 10 h cultivation at 37° C.
[31] = P. mirabilis, 10 h cultivation at 37° C.
[32] = 96-well plate, 5×10^5 CFU/mL, 37° C., 10 h

## PRT1221 (DINECLQSPCKNGAICQNFPGSFNCVCKTGYTGKMCE; listed as Homo sapiens)
[1]; [12]
  MIC against P. vulgaris: 12.5 µg/mL
[2]; [13]
  MIC against S. marcescens: 50 µg/mL
[3]; [14]
  MIC against P. aeruginosa: 25 µg/mL
[4]; [15]
  MIC against E. coli BL21: 12.5 µg/mL
[5]; [16]
  MIC against A. hydrophila: 25 µg/mL
[6]; [17]
  MIC against K. pneumonia: 25 µg/mL
[7]; [18]
  MIC against E. cloacae: 50 µg/mL
[8]; [19]
  MIC against C. diversus: 12.5 µg/mL
[9]; [20]
  MIC against M. catarrhalis: 50 µg/mL
[10]; [21]
  MIC against P. mirabilis: 25 µg/mL
[11]
  MIC: 25 µg/mL

## PRT1030 (DVDECSENRCHPAATCYNTPGSFSCRCQPGYYGDGFQCI; listed as Homo sapiens)
[1]; [22]
  MIC: 12.5 µg/mL
[2]; [23]
  MIC: 50 µg/mL
[3]; [24]
  MIC: 50 µg/mL
[4]; [25]
  MIC: 12.5 µg/mL
[5]; [26]
  MIC: 25 µg/mL
[6]; [27]
  MIC: 12.5 µg/mL
[7]; [28]
  MIC: 50 µg/mL
[8]; [29]
  MIC: 50 µg/mL
[9]; [30]
  MIC: 12.5 µg/mL
[10]; [31]
  MIC: 50 µg/mL
[11]
  MIC: 25 µg/mL

## PRT1216 (YPDACKRSPCQHGGSCTGLPSGGYQCTCLSQFTGRNCE; listed as Homo sapiens)
[1]; [12]
  MIC against P. vulgaris: 25 µg/mL
[2]; [13]
  MIC against S. marcescens: 12.5 µg/mL
[3]; [14]
  MIC against P. aeruginosa: 50 µg/mL
[4]; [15]
  MIC against E. coli BL21: 12.5 µg/mL
[5]; [16]
  MIC against A. hydrophila: 25 µg/mL
[6]; [17]
  MIC against K. pneumonia: 12.5 µg/mL
[7]; [18]
  MIC against E. cloacae: 25 µg/mL
[8]; [19]
  MIC against C. diversus: 50 µg/mL
[9]; [20]
  MIC against M. catarrhalis: 12.5 µg/mL
[10]; [21]
  MIC against P. mirabilis: 50 µg/mL
[11]
  MIC: 50 µg/mL

## PRT146 (DRDECSFQPGPCSTLVQCFNTQGSFYCGACPTGWQGNGYICE; listed as Homo sapiens)
[1]; P. vulgaris, 10 h cultivation at 37° C., 5×10^5 CFU/mL
  MIC (μg/mL) P. vulgaris: 12.5 µg/mL
[2]; S. marcescens, 10 h cultivation at 37° C., 5×10^5 CFU/mL
  MIC (μg/mL) S. marcescens: 25 µg/mL
[3]; P. aeruginosa, 10 h cultivation at 37° C., 5×10^5 CFU/mL
  MIC (μg/mL) P. aeruginosa: 12.5 µg/mL
[4]; E. coli BL21, 10 h cultivation at 37° C., 5×10^5 CFU/mL
  MIC (μg/mL) E. coli BL21: 50 µg/mL
[5]; A. hydrophila, 10 h cultivation at 37° C., 5×10^5 CFU/mL
  MIC (μg/mL) A. hydrophila: 12.5 µg/mL
[6]; K. pneumonia, 10 h cultivation at 37° C., 5×10^5 CFU/mL
  MIC (μg/mL) K. pneumonia: 50 µg/mL
[7]; E. cloacae, 10 h cultivation at 37° C., 5×10^5 CFU/mL
  MIC (μg/mL) E. cloacae: 12.5 µg/mL
[8]; C. diversus, 10 h cultivation at 37° C., 5×10^5 CFU/mL
  MIC (μg/mL) C. diversus: 25 µg/mL
[9]; M. catarrhalis, 10 h cultivation at 37° C., 5×10^5 CFU/mL
  MIC (μg/mL) M. catarrhalis: 12.5 µg/mL
[10]; P. mirabilis, 10 h cultivation at 37° C., 5×10^5 CFU/mL
  MIC (μg/mL) P. mirabilis: 25 µg/mL
[11]
  MIC: 12.5 µg/mL

## PRT913 (VINGCKGKPCKNGGTCAVASNTARGFICKCPAGFEGATCE; listed as Homo sapiens)
[1]; [22]
  MIC: 12.5 µg/mL
[2]; [23]
  MIC: 50 µg/mL
[3]; [24]
  MIC: 50 µg/mL
[4]; [25]
  MIC: 25 µg/mL
[5]; [26]
  MIC: 25 µg/mL
[6]; [27]
  MIC: 25 µg/mL
[7]; [28]
  MIC: 12.5 µg/mL
[8]; [29]
  MIC: 25 µg/mL
[9]; [30]
  MIC: 50 µg/mL
[10]; [31]
  MIC: 25 µg/mL
[11]
  MIC: 12.5 µg/mL

## PRT1473 (SFLNCSLDNGGCTHYCLEEVGWRRCSCAPGYKLGDDLLQCH; listed as Homo sapiens)
[1]; Proteus vulgaris, 5×10^5 CFU/mL, 10 h cultivation at 37° C.
  MIC against P. vulgaris: 25 µg/mL
[2]; Serratia marcescens, 5×10^5 CFU/mL, 10 h cultivation at 37° C.
  MIC against S. marcescens: 12.5 µg/mL
[3]; Pseudomonas aeruginosa, 5×10^5 CFU/mL, 10 h cultivation at 37° C.
  MIC against P. aeruginosa: 25 µg/mL
[4]; E. coli BL21, 5×10^5 CFU/mL, 10 h cultivation at 37° C.
  MIC against E. coli BL21: 25 µg/mL
[5]; Aeromonas hydrophila, 5×10^5 CFU/mL, 10 h cultivation at 37° C.
  MIC against A. hydrophila: 50 µg/mL
[6]; Klebsiella pneumonia, 5×10^5 CFU/mL, 10 h cultivation at 37° C.
  MIC against K. pneumonia: 50 µg/mL
[7]; Enterobacter cloacae, 5×10^5 CFU/mL, 10 h cultivation at 37° C.
  MIC against E. cloacae: 12.5 µg/mL
[8]; Citrobacter diversus, 5×10^5 CFU/mL, 10 h cultivation at 37° C.
  MIC against C. diversus: 12.5 µg/mL
[9]; Moraxella catarrhalis, 5×10^5 CFU/mL, 10 h cultivation at 37° C.
  MIC against M. catarrhalis: 25 µg/mL
[10]; Proteus mirabilis, 5×10^5 CFU/mL, 10 h cultivation at 37° C.
  MIC against P. mirabilis: 50 µg/mL
[11]
  MIC: 12.5 µg/mL

## PRT1214 (GRENCTFAPCLEGGTCILSPKGASCNCPHPYTGDRCE; listed as Homo sapiens)
[1]; [12]
  MIC against P. vulgaris: 12.5 µg/mL
[2]; [13]
  MIC against S. marcescens: 25 µg/mL
[3]; [14]
  MIC against P. aeruginosa: 50 µg/mL
[4]; [15]
  MIC against E. coli BL21: 12.5 µg/mL
[5]; [16]
  MIC against A. hydrophila: 50 µg/mL
[6]; [17]
  MIC against K. pneumonia: 25 µg/mL
[7]; [18]
  MIC against E. cloacae: 12.5 µg/mL
[8]; [19]
  MIC against C. diversus: 12.5 µg/mL
[9]; [20]
  MIC against M. catarrhalis: 25 µg/mL
[10]; [21]
  MIC against P. mirabilis: 50 µg/mL
[11]
  MIC: 25 µg/mL

## PRT584 (CQCSHEGALSSLCEKTSGQCLCRTGAFGLRCDRCQRGQWGFPSCRP; listed as Homo sapiens)
[1]; [32]
  MIC against P. vulgaris: 50 µg/mL
[2]; [32]
  MIC against S. marcescens: 25 µg/mL
[3]; [32]
  MIC against P. aeruginosa: 25 µg/mL
[4]; [32]
  MIC against E. coli BL21: 50 µg/mL
[5]; [32]
  MIC against A. hydrophila: 50 µg/mL
[6]; [32]
  MIC against K. pneumonia: 50 µg/mL
[7]; [32]
  MIC against E. cloacae: 25 µg/mL
[8]; [32]
  MIC against C. diversus: 25 µg/mL
[9]; [32]
  MIC against M. catarrhalis: 50 µg/mL
[10]; [32]
  MIC against P. mirabilis: 25 µg/mL
[11]
  MIC: 50 µg/mL

## PRT642 (DVNECDELNNRMSLCKNAKCINTDGSYKCLCLPGYVPSDKPNYCT; listed as Homo sapiens)
[1]; [32]
  MIC P. vulgaris: 50 µg/mL
[2]; [32]
  MIC S. marcescens: 25 µg/mL
[3]; [32]
  MIC P. aeruginosa: 25 µg/mL
[4]; [32]
  MIC E. coli BL21: 50 µg/mL
[5]; [32]
  MIC A. hydrophila: 50 µg/mL
[6]; [32]
  MIC K. pneumonia: 12.5 µg/mL
[7]; [32]
  MIC E. cloacae: 25 µg/mL
[8]; [32]
  MIC C. diversus: 25 µg/mL
[9]; [32]
  MIC M. catarrhalis: 12.5 µg/mL
[10]; [32]
  MIC P. mirabilis: 25 µg/mL
[11]
  MIC: 12.5 µg/mL

## PRT42 (CQCNGHSKCINQSICEKCENLTTGKHCETCISGFYGDPTNGGKCQP; listed as Homo sapiens)
[1]; [12]
  MIC (μg/mL) P. vulgaris: 100 µg/mL
[2]; [13]
  MIC (μg/mL) S. marcescens: 50 µg/mL
[3]; [14]
  MIC (μg/mL) P. aeruginosa: 25 µg/mL
[4]; [15]
  MIC (μg/mL) E. coli BL21: 12.5 µg/mL
[5]; [16]
  MIC (μg/mL) A. hydrophila: 12.5 µg/mL
[6]; [17]
  MIC (μg/mL) K. pneumonia: 12.5 µg/mL
[7]; [18]
  MIC (μg/mL) E. cloacae: 25 µg/mL
[8]; [19]
  MIC (μg/mL) C. diversus: 25 µg/mL
[9]; [20]
  MIC (μg/mL) M. catarrhalis: 12.5 µg/mL
[10]; [21]
  MIC (μg/mL) P. mirabilis: 25 µg/mL
[11]
  MIC: 25 µg/mL
